Reference: the CheMixHub ionic liquid set

Test: xn = mol fraction of the nth substance listed

CCCCCCCC[n+]1ccc2ccccc2c1.O=S(=O)([N-]S(=O)(=O)C(F)(F)F)C(F)(F)F + Cc1ccccc1
101 kPa
Settings | viscosity [mPa·s]
298.15 K, x2 = 0.0818 | 308
298.15 K, x2 = 0.4775 | 50.6
298.15 K, x2 = 0.4902 | 48.5
308.15 K, x2 = 0.0818 | 162.6
308.15 K, x2 = 0.2746 | 81.6
308.15 K, x2 = 0.4295 | 41.74
308.15 K, x2 = 0.4775 | 32.56
318.15 K, x2 = 0.1949 | 67
318.15 K, x2 = 0.6148 | 11.19
318.15 K, x2 = 0.8672 | 2.19
328.15 K, x2 = 0.3638 | 25.85
328.15 K, x2 = 0.4295 | 19.34
328.15 K, x2 = 0.5467 | 12.11
328.15 K, x2 = 0.7004 | 5.51
338.15 K, x2 = 0 | 44.8
338.15 K, x2 = 0.4775 | 11.71

CC[n+]1ccn(C)c1.O=S(=O)([O-])C(F)(F)F + F[B-](F)(F)F.[Li+]
101 kPa, x1 = 1
Settings | electrical conductivity [S/m]
288.15 K | 0.605
298.15 K | 0.859
333.15 K | 2.24

CC[n+]1ccn(C)c1.O=S(=O)([O-])C(F)(F)F + F[P-](F)(F)(F)(F)F.[Li+]
101 kPa, x1 = 1
Settings | electrical conductivity [S/m]
288.15 K | 0.605
298.15 K | 0.859
333.15 K | 2.24

C=C[n+]1ccn(CCCC)c1.N[C@@H](CO)C(=O)[O-] + O
101.3 kPa
Settings | electrical conductivity [S/m] | viscosity [mPa·s]
293.15 K, x1 = 0.3 | – | 17
303.15 K, x1 = 0.1 | 1.37 | 6
303.15 K, x1 = 0.9 | – | 1832
323.15 K, x1 = 1 | 0.017 | 4800
333.15 K, x1 = 0.5 | – | 38.96
343.15 K, x1 = 1 | – | 1737
353.15 K, x1 = 0.1 | – | 4.35
353.15 K, x1 = 0.5 | – | 35.95
353.15 K, x1 = 1 | – | 1154

CC(=O)[O-].Cn1cc[n+](C)c1 + O
293.15 K, 101.3 kPa
Settings | electrical conductivity [S/m]
x2 = 0 | 0.275
x2 = 0.0799 | 0.561
x2 = 0.1095 | 0.863
x2 = 0.2767 | 1.457
x2 = 0.4986 | 2.733
x2 = 0.5673 | 3.384
x2 = 0.7029 | 5.091
x2 = 0.7484 | 5.772
x2 = 0.8651 | 7.166
x2 = 0.8897 | 6.824
x2 = 0.9043 | 5.765
x2 = 0.9388 | 2.782
x2 = 0.9483 | 2
x2 = 0.9579 | 1.213
x2 = 0.9681 | 0.729

CC[NH+](C)CC.CS(=O)(=O)[O-] + O
Settings | viscosity [mPa·s]
293.1 K, 101 kPa, x2 = 0.707 | 21
298.15 K, 100 kPa, x1 = 0.0967 | 4.51
298.15 K, 100 kPa, x1 = 0.4263 | 31.1
298.15 K, 100 kPa, x1 = 0.6771 | 69.7
303.15 K, 100 kPa, x1 = 0.0967 | 3.94
303.15 K, 100 kPa, x1 = 0.3246 | 16.6
303.15 K, 100 kPa, x1 = 0.6771 | 55.2
308.15 K, 100 kPa, x1 = 0.0155 | 1.04
308.15 K, 100 kPa, x1 = 0.5018 | 27.9
308.15 K, 100 kPa, x1 = 0.5783 | 34.2
308.15 K, 100 kPa, x1 = 0.7782 | 55.3
313.1 K, 101 kPa, x2 = 0.372 | 27.27
313.15 K, 100 kPa, x1 = 0.0571 | 1.79
313.15 K, 100 kPa, x1 = 0.3246 | 11.8
313.15 K, 100 kPa, x1 = 0.4263 | 18
318.15 K, 100 kPa, x1 = 0.1582 | 4.46
328.15 K, 100 kPa, x1 = 0.1582 | 3.46
328.15 K, 100 kPa, x1 = 0.206 | 4.6
328.15 K, 100 kPa, x1 = 0.5018 | 14.1
328.15 K, 100 kPa, x1 = 0.7782 | 25.4
333.1 K, 101 kPa, x2 = 0.372 | 13.95
333.1 K, 101 kPa, x2 = 0.507 | 9.98
333.15 K, 100 kPa, x1 = 0.0967 | 1.97
333.15 K, 100 kPa, x1 = 0.3246 | 6.65
333.15 K, 100 kPa, x1 = 0.5018 | 12.2
338.15 K, 100 kPa, x1 = 0.0571 | 1.11
338.15 K, 100 kPa, x1 = 0.3246 | 5.84
338.15 K, 100 kPa, x1 = 0.4263 | 8.21
338.15 K, 100 kPa, x1 = 0.5018 | 10.3
338.15 K, 100 kPa, x1 = 0.5783 | 12.2
338.15 K, 100 kPa, x1 = 0.6771 | 15.3
353.1 K, 101 kPa, x2 = 0.449 | 6.83
353.1 K, 101 kPa, x2 = 0.624 | 4.58

CC[n+]1ccn(C)c1.O=S(=O)([O-])C(F)(F)F + O
101 kPa
Settings | electrical conductivity [S/m] | viscosity [mPa·s]
293.15 K, x1 = 0.004 | – | 1.07
293.15 K, x1 = 0.029 | – | 1.67
293.15 K, x1 = 0.041 | – | 2.01
293.15 K, x1 = 0.463 | – | 13.6
297.45 K, x2 = 0.304 | 1.17 | –
298.15 K, x1 = 0.005 | 1.4 | 0.99
298.15 K, x1 = 0.012 | 2.3 | 1.11
298.15 K, x1 = 0.017 | – | 1.23
298.15 K, x1 = 0.041 | – | 1.78
298.15 K, x1 = 0.064 | 4.4 | 2.17
298.15 K, x1 = 0.137 | 4.6 | 3.71
303.15 K, x1 = 0.008 | – | 0.92
303.15 K, x1 = 0.017 | – | 1.09
303.15 K, x1 = 0.137 | – | 3.27
303.15 K, x1 = 0.391 | – | 8.23
303.65 K, x2 = 0.304 | 1.46 | –
305.35 K, x2 = 0.304 | 1.58 | –
313.15 K, x1 = 0.004 | – | 0.7
313.15 K, x1 = 0.017 | 3.9 | 0.89
313.15 K, x1 = 0.029 | 5.1 | 1.05
313.15 K, x1 = 0.137 | 6.3 | 2.58

O=S(=O)([O-])C(F)(F)F.[Li+] + O
Settings | electrical conductivity, 298.1 K [S/m] | electrical conductivity, 298.15 K [S/m] | electrical conductivity, 308.15 K [S/m] | electrical conductivity, 318.15 K [S/m] | electrical conductivity, 328.15 K [S/m] | viscosity, 298.15 K [mPa·s] | viscosity, 308.15 K [mPa·s] | viscosity, 318.15 K [mPa·s] | viscosity, 328.15 K [mPa·s]
100 kPa, x1 = 0.1122 | – | 7.3 | 8.94 | 10.9 | 12.7 | 3.7 | 2.9 | 2.27 | 1.85
100 kPa, x1 = 0.1783 | – | 4.63 | 5.73 | 6.99 | 8.17 | 9.2 | 6.9 | 5.3 | 4.2
100 kPa, x1 = 0.2388 | – | 2.6 | 3.26 | 4.06 | 4.89 | 21.9 | 16 | 11.1 | 8.6
100 kPa, x1 = 0.2541 | – | 1.98 | 2.53 | 3.16 | 3.92 | 31.8 | 22.6 | 15.9 | 12.2
100 kPa, x1 = 0.2743 | – | 1.56 | 2.04 | 2.59 | 3.2 | 47.2 | 32.9 | 23.9 | 18.1
101 kPa, x1 = 0.01944 | 4.69 | – | – | – | – | – | – | – | –
101 kPa, x1 = 0.1527 | 4.69 | – | – | – | – | – | – | – | –
101 kPa, x1 = 0.2649 | 1.34 | – | – | – | – | – | – | – | –
101 kPa, x1 = 0.3106 | 0.51 | – | – | – | – | – | – | – | –
